Experimental data published in PubChem BioAssay AID1745844 (Carcinogenic Potency Database (CPDB), 2022).
Values joined by “and” are separate entries in the source; they are usually repeats but may differ in a detail not shown here. Identical values can stand only once. Active and inactive are the calls of the source. How the calls were made is not given here.

System: rodent lifetime carcinogenesis bioassay, tumor incidence TD50
Assay: chronic cancer bioassays in animals – CPDB, compiled studies (AID 1745844)
[1] = mouse, strain ICI, males, by gavage, site: liver, lesion: several types, types named in the paper, dosed 80 weeks, study length 98 weeks
[2] = mouse, strain ICI, males, by gavage, site: lung, lesion: several types, types named in the paper, dosed 80 weeks, study length 98 weeks

With `ClC(Cl)Cl` the TD50 (dog, strain Beagle, females, in feed, site: any site (literature study), lesion: several types, types named in the paper, dosed 376 weeks, study length 397 weeks) was 10 mg/kg/day (inactive), the carcinogen call (dog, strain Beagle, females, in feed, site: liver, lesion: one or several types, types not named, dosed 376 weeks, study length 397 weeks) was “negative (inactive)” and the TD50 (dog, strain Beagle, males, in feed, site: any site (literature study), lesion: several types, types named in the paper, dosed 376 weeks, study length 397 weeks) was 13.3 mg/kg/day (inactive). The carcinogen call (dog, strain Beagle, males, in feed, site: liver, lesion: one or several types, types not named, dosed 376 weeks, study length 397 weeks) was “negative (inactive)”, the TD50 (mouse, strain B6C3F1, females, by gavage, site: any site (literature study), lesion: several types, types named in the paper, dosed 78 weeks, study length 92 weeks) was 54.1 mg/kg/day and the TD50 (mouse, strain B6C3F1, females, by gavage, site: liver, lesion: hepatocellular adenoma + hepatocellular carcinoma + neoplastic nodule, dosed 78 weeks, study length 92 weeks) was 48 mg/kg/day. The TD50 (mouse, strain B6C3F1, females, by gavage, site: liver, lesion: hepatocellular carcinoma, dosed 78 weeks, study length 92 weeks) was 48 mg/kg/day, the carcinogen call (mouse, strain B6C3F1, females, in drinking water, site: any site (literature study), lesion: several types, types named in the paper, dosed 104 weeks, study length 104 weeks) was “negative (inactive)” and the carcinogen call (mouse, strain B6C3F1, females, in drinking water, site: liver, lesion: hepatocellular adenoma, dosed 104 weeks, study length 104 weeks) was “negative (inactive)”. The TD50 (mouse, strain B6C3F1, females, in drinking water, site: liver, lesion: hepatocellular carcinoma, dosed 104 weeks, study length 104 weeks) was 20200 mg/kg/day (inactive), the carcinogen call (mouse, strain B6C3F1, females, in drinking water, site: liver, lesion: several types, types named in the paper, dosed 104 weeks, study length 104 weeks) was “negative (inactive)” and the TD50 (mouse, strain B6C3F1, males, by gavage, site: any site (literature study), lesion: several types, types named in the paper, dosed 78 weeks, study length 92 weeks) was 71.1 mg/kg/day. The TD50 (mouse, strain B6C3F1, males, by gavage, site: liver, lesion: hepatocellular adenoma + hepatocellular carcinoma + neoplastic nodule, dosed 78 weeks, study length 92 weeks) was 56.2 mg/kg/day, the TD50 (mouse, strain B6C3F1, males, by gavage, site: liver, lesion: hepatocellular carcinoma, dosed 78 weeks, study length 92 weeks) was 56.2 mg/kg/day and the carcinogen call (mouse, strain C57BL, males, by gavage, site: any site (literature study), lesion: several types, types named in the paper, dosed 80 weeks, study length 104 weeks) was “negative (inactive)”. The carcinogen call (mouse, strain C57BL, males, by gavage, site: liver, lesion: one or several types, types not named, dosed 80 weeks, study length 104 weeks) was “negative (inactive)”, the TD50 (mouse, strain C57BL, males, by gavage, site: lung, lesion: several types, types named in the paper, dosed 80 weeks, study length 104 weeks) was 728 mg/kg/day (inactive) and the carcinogen call (mouse, strain CBA, males, by gavage, site: any site (literature study), lesion: several types, types named in the paper, dosed 80 weeks, study length 104 weeks) was “negative (inactive)”. For the same compound, the carcinogen call (mouse, strain CBA, males, by gavage, site: liver, lesion: several types, types named in the paper, dosed 80 weeks, study length 104 weeks) was “negative (inactive)”, the carcinogen call (mouse, strain CBA, males, by gavage, site: lung, lesion: several types, types named in the paper, dosed 80 weeks, study length 104 weeks) was “negative (inactive)” and the TD50 (mouse, strain CF-1, males, by gavage, site: any site (literature study), lesion: several types, types named in the paper, dosed 80 weeks, study length 93 weeks) was 140 mg/kg/day (inactive). The TD50 (mouse, strain CF-1, males, by gavage, site: liver, lesion: one or several types, types not named, dosed 80 weeks, study length 93 weeks) was 1430 mg/kg/day (inactive), the TD50 (mouse, strain CF-1, males, by gavage, site: lung, lesion: several types, types named in the paper, dosed 80 weeks, study length 93 weeks) was 376 mg/kg/day (inactive) and the TD50 (mouse, strain CFLP, males, by gavage, site: kidney, lesion: several types, types named in the paper, dosed 80 weeks, study length 104 weeks) was 153 mg/kg/day. For the same compound, the carcinogen call (mouse, strain CFLP, males, by gavage, site: liver, lesion: one or several types, types not named, dosed 80 weeks, study length 104 weeks) was “negative (inactive)”, the TD50 (mouse, strain CFLP, males, by gavage, site: lung, lesion: one or several types, types not named, dosed 80 weeks, study length 104 weeks) was 4350 mg/kg/day (inactive) and the TD50 (mouse, strain Crj:BDF1, females, inhaled, site: liver, lesion: hepatocellular carcinoma, dosed 104 weeks, study length 104 weeks) was 2670 mg/kg/day. For the same compound, the TD50 (mouse, strain Crj:BDF1, females, inhaled, site: liver, lesion: several types, types named in the paper, dosed 104 weeks, study length 104 weeks) was 909 mg/kg/day, the TD50 (mouse, strain Crj:BDF1, females, inhaled, site: pituitary gland, lesion: adenoma, dosed 104 weeks, study length 104 weeks) was 2070 mg/kg/day and the TD50 (mouse, strain Crj:BDF1, males, inhaled, site: kidney, lesion: renal-cell adenoma, dosed 104 weeks, study length 104 weeks) was 1250 mg/kg/day. For the same compound, the TD50 (mouse, strain Crj:BDF1, males, inhaled, site: kidney, lesion: renal-cell carcinoma, dosed 104 weeks, study length 104 weeks) was 287 mg/kg/day, the TD50 (mouse, strain Crj:BDF1, males, inhaled, site: kidney, lesion: several types, types named in the paper, dosed 104 weeks, study length 104 weeks) was 226 mg/kg/day and the TD50 (mouse, strain Crj:BDF1, males, inhaled, site: liver, lesion: several types, types named in the paper, dosed 104 weeks, study length 104 weeks) was 402 mg/kg/day. For the same compound, the TD50 (mouse, strain Crj:BDF1, males, inhaled, site: lung, lesion: alveolar/bronchiolar carcinoma, dosed 104 weeks, study length 104 weeks) was 3530 mg/kg/day, the carcinogen call (mouse, strain ICI, females, by gavage, site: any site (literature study), lesion: several types, types named in the paper, dosed 80 weeks, study length 96 weeks) was “negative (inactive)” and the carcinogen call (mouse, strain ICI, females, by gavage, site: liver, lesion: one or several types, types not named, dosed 80 weeks, study length 96 weeks) was “negative (inactive)”. The TD50 (mouse, strain ICI, females, by gavage, site: lung, lesion: one or several types, types not named, dosed 80 weeks, study length 96 weeks) was 316 mg/kg/day (inactive), the TD50 (mouse, strain ICI, males, by gavage, site: any site (literature study), lesion: several types, types named in the paper, dosed 80 weeks, study length 96 weeks) was 45.4 mg/kg/day and the TD50 (mouse, strain ICI, males, by gavage, site: any site (literature study), lesion: several types, types named in the paper, dosed 80 weeks, study length 98 weeks) was 88.5 mg/kg/day. For the same compound, the TD50 (mouse, strain ICI, males, by gavage, site: kidney, lesion: several types, types named in the paper, dosed 80 weeks, study length 96 weeks) was 139 mg/kg/day, the TD50 (mouse, strain ICI, males, by gavage, site: kidney, lesion: several types, types named in the paper, dosed 80 weeks, study length 98 weeks) was 278 mg/kg/day and 95.5 mg/kg/day and the TD50 (mouse, strain ICI, males, by gavage, site: liver, lesion: one or several types, types not named, dosed 80 weeks, study length 96 weeks) was 324 mg/kg/day (inactive). The TD50 [1] was 437 mg/kg/day (inactive), the carcinogen call [1] was “negative (inactive)” and the TD50 (mouse, strain ICI, males, by gavage, site: lung, lesion: one or several types, types not named, dosed 80 weeks, study length 96 weeks) was 9830 mg/kg/day (inactive). The TD50 [2] was 336 mg/kg/day (inactive), the carcinogen call [2] was “negative (inactive)” and the TD50 (rat, strain F344/DuCrj, females, inhaled, site: kidney, lesion: renal-cell adenoma, dosed 104 weeks, study length 104 weeks) was 1590 mg/kg/day (inactive). For the same compound, the TD50 (rat, strain F344/DuCrj, females, inhaled, site: kidney, lesion: transitional-cell carcinoma, dosed 104 weeks, study length 104 weeks) was 1590 mg/kg/day (inactive), the TD50 (rat, strain F344/DuCrj, females, inhaled, site: liver, lesion: hepatocellular adenoma, dosed 104 weeks, study length 104 weeks) was 2180 mg/kg/day (inactive) and the carcinogen call (rat, strain F344/DuCrj, males, inhaled, site: kidney, lesion: one or several types, types not named, dosed 104 weeks, study length 104 weeks) was “negative (inactive)”. The carcinogen call (rat, strain F344/DuCrj, males, inhaled, site: liver, lesion: several types, types named in the paper, dosed 104 weeks, study length 104 weeks) was “negative (inactive)”, the TD50 (rat, strain Osborne-Mendel, females, by gavage, site: any site (literature study), lesion: several types, types named in the paper, dosed 78 weeks, study length 110 weeks) was 68.2 mg/kg/day and the TD50 (rat, strain Osborne-Mendel, females, by gavage, site: liver, lesion: hepatocellular adenoma + hepatocellular carcinoma + neoplastic nodule, dosed 78 weeks, study length 110 weeks) was 1130 mg/kg/day. For the same compound, the TD50 (rat, strain Osborne-Mendel, females, by gavage, site: thyroid gland, lesion: c-cell adenoma + c-cell carcinoma + follicular-cell adenoma + follicular-cell carcinoma, dosed 78 weeks, study length 110 weeks) was 126 mg/kg/day (inactive), the TD50 (rat, strain Osborne-Mendel, males, by gavage, site: any site (literature study), lesion: several types, types named in the paper, dosed 78 weeks, study length 110 weeks) was 194 mg/kg/day and the TD50 (rat, strain Osborne-Mendel, males, by gavage, site: kidney, lesion: tubular-cell adenoma + tubular-cell adenocarcinoma, dosed 78 weeks, study length 110 weeks) was 119 mg/kg/day. It also gave a TD50 (rat, strain Osborne-Mendel, males, by gavage, site: liver, lesion: hepatocellular adenoma + hepatocellular carcinoma + neoplastic nodule, dosed 78 weeks, study length 110 weeks) of 455 mg/kg/day, a TD50 (rat, strain Osborne-Mendel, males, in drinking water, site: all sites, lesion: neurofibroma, dosed 104 weeks, study length 104 weeks) of 2200 mg/kg/day and a TD50 (rat, strain Osborne-Mendel, males, in drinking water, site: all sites, lesion: several types, types named in the paper, dosed 104 weeks, study length 104 weeks) of 1360 mg/kg/day. For the same compound, the TD50 (rat, strain Osborne-Mendel, males, in drinking water, site: any site (literature study), lesion: several types, types named in the paper, dosed 104 weeks, study length 104 weeks) was 1970 mg/kg/day, the TD50 (rat, strain Osborne-Mendel, males, in drinking water, site: kidney, lesion: several types, types named in the paper, dosed 104 weeks, study length 104 weeks) was 519 mg/kg/day and 606 mg/kg/day and the TD50 (rat, strain Osborne-Mendel, males, in drinking water, site: kidney, lesion: tubular-cell adenoma, dosed 104 weeks, study length 104 weeks) was 972 mg/kg/day. The TD50 (rat, strain Sprague-Dawley, females, by gavage, site: any site (literature study), lesion: malignant tumor, dosed 80 weeks, study length 95 weeks) was 276 mg/kg/day (inactive), the TD50 (rat, strain Sprague-Dawley, females, by gavage, site: any site (literature study), lesion: several types, types named in the paper, dosed 80 weeks, study length 95 weeks) was 78.3 mg/kg/day (inactive) and the TD50 (rat, strain Sprague-Dawley, females, by gavage, site: liver, lesion: cystadenoma, dosed 80 weeks, study length 95 weeks) was 1200 mg/kg/day (inactive). The carcinogen call (rat, strain Sprague-Dawley, males, by gavage, site: any site (literature study), lesion: malignant tumor, dosed 80 weeks, study length 95 weeks) was “negative (inactive)”, the carcinogen call (rat, strain Sprague-Dawley, males, by gavage, site: any site (literature study), lesion: several types, types named in the paper, dosed 80 weeks, study length 95 weeks) was “negative (inactive)” and the carcinogen call (rat, strain Sprague-Dawley, males, by gavage, site: liver, lesion: one or several types, types not named, dosed 80 weeks, study length 95 weeks) was “negative (inactive)”. The TD50 (rat, strain Wistar, females, in drinking water, site: liver, lesion: hepatocellular carcinoma, dosed 187 weeks, study length 187 weeks) was 10000 mg/kg/day, the TD50 (rat, strain Wistar, females, in drinking water, site: liver, lesion: neoplastic nodule, dosed 187 weeks, study length 187 weeks) was 883 mg/kg/day and the TD50 (rat, strain Wistar, males, in drinking water, site: kidney, lesion: adenocarcinoma, dosed 172 weeks, study length 172 weeks) was 5300 mg/kg/day. It also gave a TD50 (rat, strain Wistar, males, in drinking water, site: kidney, lesion: adenoma, dosed 172 weeks, study length 172 weeks) of 5300 mg/kg/day and a TD50 (rat, strain Wistar, males, in drinking water, site: liver, lesion: hepatocellular carcinoma, dosed 172 weeks, study length 172 weeks) of 5300 mg/kg/day.
